This is an account of results in EP1285920A1, “C10 Ester sustituted taxanes as antitumor agents” (Florida State University Research Foundation, Inc., priority 2001, dated 2003).

Each structure is given as a SMILES string. Read-outs that look alike come from different tables or passages of the source.

One data set deals with HCT116. Nature of the data set: In Vitro cytotoxicity measured by the cell colony formation assay. The conditions noted are these: Homo sapiens, HCT-116; read-out: IN VITRO ID 50 HCT116. The format is cell-based, human. In outline:
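Four hundred cells per dish in McCoy's 5a medium with 10% FBS were allowed to attach for 5 h at 37 °C. They were then exposed to compound for 72 h at 37 °C, added as a 10× stock made fresh in medium. After HBSS rinsing and refeeding, colonies were counted after 7 days.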

The next data set deals with HCT116 carcinoma. As to conditions: for Toxic Deaths: mg/kg: Taxol 36 (split doses), 0503 72.6, 0536 49, 0663 159, 0670 123, 0687 159, 0706 108, 0908 159, 0947 76.9, 0951 72.6, 0983 72.6, 0999 49, 1003 49, 1011 108. The method, then:
Antitumor compounds were formulated for an i.v. dosing regime and were prepared in the following vehicle: 5% ethanol, 5% Cremophor and 90% isotonic saline.
The antitumor compounds were given intravenously in a single maximum tolerated dose (MTD) appropriate for each compound. […] The MTDs for the antitumor compounds were calculated from earlier single dose data for mice receiving i.v. administration of these compounds. All vehicle control animals in the split dosing regimes were dosed twice intravenously with half of the total volume being given separated by one hour. The study was terminated on Day 60.
A complete response is obtained if the tumor is not palpable at the end of the study.

The test system of another data set is MX-1 carcinoma. The conditions noted are these: for Toxic Deaths: mg/kg: Taxol 36 (split dose), 0503 72.6, 0536 49, 0663 159, 0670 123, 0687 159, 0706 108, 0908 159, 0947 76.9, 0951 72.6, 0983 67.4, 0999 49, 1003 49, 1011 108. The procedure: Thirteen antitumor compounds were formulated for an i.v. dosing regime (single i.v. bolus, qd x 1 schedule) prepared in the following vehicle: 5% ethanol, 5% Cremophor and 90% isotonic saline.
The antitumor compounds were given intravenously in a single maximum tolerated dose (MTD) appropriate for each compound. […] The MTDs for the antitumor compounds were calculated from earlier single dose data for mice receiving i.v. administration of these compounds. All vehicle control animals in the split dosing regimes were dosed twice intravenously with half the total volume being given separated by one hour. The study was terminated on Day 60.
A complete response is obtained if the tumor is not palpable at the end of the study. […]

Another data set has as its system A2780 ovarian carcinoma. The conditions noted are these: for Toxic Deaths / Survivors: number of mice, i.v. qd x 1 at estimated MTD (Taxol 24 mg/kg, Taxotere 70 mg/kg, 0983 72.6 mg/kg), 5 mice/group (Taxotere 6); for Survivors: Day 60. The method, then: Dosing was initiated on Day 1. […] Taxotere was given i.v. on a qd x 1 schedule at a dose of 70 mg/kg. […] The study was terminated on Day 60. Treatment groups are detailed in Table 7.

The subject of another data set is VM46 colon carcinoma. The procedure:
Dosing was initiated on Day 1. […] Taxotere was given i.v. at a dose of 70 mg/kg on a qd x 1 schedule.

The mark [1] stands for this setting: number of 5 mice, i.v. qd x 1 at MTD, Day 60, doses as in E3.
[2] abbreviates: number of 5 mice, i.v. qd x 1 at MTD, Day 60.
The mark [3] stands for this setting: number of 6 mice, i.v. qd x 1 at MTD, Day 60, doses as in E17.
[4] abbreviates: number of 6 mice, i.v. qd x 1 at MTD, Day 60.
The mark [5] stands for this setting: A2780, i.v. qd x 1, five mice per group.
Where [6] appears, read: number of mice, i.v. qd x 1, mg/kg: Taxol 24, 0499 77, 0503 72.6, 0670 123.1, 0706 107.6, 0838 72.6, 0854 46.6, 0983 67.4, Taxotere 70, 6 mice/group, Day 64.

`CCCC(=O)O[C@H]1C(=O)[C@@]2(C)[C@H]([C@H](OC(=O)c3ccccc3)[C@]3(O)C[C@H](OC(=O)[C@H](O)[C@H](C=C(C)C)NC(=O)OC(C)(C)C)C(C)=C1C3(C)C)[C@]1(OC(C)=O)CO[C@@H]1C[C@@H]2O` [Compound 0947]: the IC50 with HCT116 was under 1 nM. Further, the “Partial Response” value with HCT116 carcinoma (iv) was found to be 4; with MX-1 carcinoma (iv), 0. Besides, the “Complete Response” value with HCT116 carcinoma (iv, 1440 h) amounted to 1; in the data set on MX-1 carcinoma (iv, 1440 h), 3; in the data set on A2780 ovarian carcinoma (iv, 72.6 mg/kg, 1440 h) it was 0. Moreover, the “Mean Score” value with HCT116 carcinoma (iv, 1440 h) came out at 9.2 ± 0.2; with MX-1 carcinoma (iv, 1440 h), 5.5 ± 2.1; in the data set on A2780 ovarian carcinoma (iv, 72.6 mg/kg), 4.8 ± 1.8. The “Stable Disease” value in the data set with HCT116 carcinoma (iv, 1440 h) turned out to be 0; with MX-1 carcinoma (iv, 1440 h), 0; with A2780 ovarian carcinoma (iv, 72.6 mg/kg, 1440 h) it was 0. Further, the Survivors is on record as 5 in the data set with HCT116 carcinoma (setting [1]), 3 in the data set on MX-1 carcinoma (setting [3]) and 2 with A2780 ovarian carcinoma. In addition, the figures for the “Toxic Deaths” value in the data set with HCT116 carcinoma (setting [2]), in the data set on MX-1 carcinoma (setting [4]) and in the data set with A2780 ovarian carcinoma were 0, 2 and 1, respectively. The partial responses in the data set on A2780 ovarian carcinoma (setting [5]) was 2. The total response rate entry in the data set with A2780 ovarian carcinoma (setting [5]) is reported as “at least 20%”. For the same compound, in the data set on A2780 ovarian carcinoma (iv, 72.6 mg/kg, 1440 h), the “MDS (n)” value is 32.7 ± 5.4 (2) days. Further, the “Partial Respons” value with A2780 ovarian carcinoma (iv, 72.6 mg/kg, 1440 h) is reported as 2.

Regarding `CCCC(=O)O[C@H]1C(=O)[C@@]2(C)[C@H]([C@H](OC(=O)c3ccccc3)[C@]3(O)C[C@H](OC(=O)[C@H](O)[C@@H](NC(=O)OC(C)(C)C)c4ccco4)C(C)=C1C3(C)C)[C@]1(OC(C)=O)CO[C@@H]1C[C@@H]2O` [Compound 0983], in the data set on HCT116, the IC50 was under 1 nM. The “group mean weight losses” value in the data set on HCT116 carcinoma (HCT116, single i.v. MTD, Days 6-10) is given as “over 20%”. Also, the “Partial Response” value with HCT116 carcinoma (iv) stood at 1; with MX-1 carcinoma (iv), 0; with VM46 colon carcinoma (setting [6]), 0. In addition, the “Complete Response” value in the data set with HCT116 carcinoma (iv, 1440 h) is listed as 2; in the data set on MX-1 carcinoma (iv, 1440 h), 6; with A2780 ovarian carcinoma (iv, 72.6 mg/kg, 1440 h) it was 0; in the data set on VM46 colon carcinoma (setting [6]), 0. In addition, the “Mean Score” value with HCT116 carcinoma (iv, 1440 h) came to 5.8 ± 2.4; in the data set with MX-1 carcinoma (iv, 1440 h), 10 ± 0; in the data set on A2780 ovarian carcinoma (iv, 72.6 mg/kg), 0 ± 0; in the data set with VM46 colon carcinoma (iv), 1.7 ± 0.8. Also, the “Stable Disease” value was 0 in the data set on HCT116 carcinoma (iv, 1440 h); 0 with MX-1 carcinoma (iv, 1440 h); 0 in the data set with A2780 ovarian carcinoma (iv, 72.6 mg/kg, 1440 h); 1 in the data set on VM46 colon carcinoma (setting [6]). Further, the Survivors in the data set on HCT116 carcinoma (setting [1]) is on record as 3; with MX-1 carcinoma (setting [3]), 6; with A2780 ovarian carcinoma, 0; in the data set with VM46 colon carcinoma (setting [6]), 1. For the same compound, the “Toxic Deaths” value was 2 in the data set on HCT116 carcinoma (setting [2]); 0 in the data set on MX-1 carcinoma (setting [4]); 5 in the data set with A2780 ovarian carcinoma; 3 in the data set with VM46 colon carcinoma (number of mice, i.v. qd x 1, mg/kg: Taxol 24, 0499 77, 0503 72.6, 0670 123.1, 0706 107.6, 0838 72.6, 0854 46.6, 0983 67.4, Taxotere 70, 6 mice/group). Besides, the “Partial Respons” value with A2780 ovarian carcinoma (iv, 72.6 mg/kg, 1440 h) is recorded as 0. For the same compound, in the data set on VM46 colon carcinoma (VM46, i.v. qd x 1 at estimated MTD), the response rate is 0%. Besides, the “MDS (n)” value with VM46 colon carcinoma (iv, 1536 h) is given as 56.0 ± 6.8 (2) days.

For the compound `CCCC(=O)O[C@H]1C(=O)[C@@]2(C)[C@H]([C@H](OC(=O)c3ccccc3)[C@]3(O)C[C@H](OC(=O)[C@H](O)[C@@H](NC(=O)OC(C)(C)C)c4ccccn4)C(C)=C1C3(C)C)[C@]1(OC(C)=O)CO[C@@H]1C[C@@H]2O` [Compound 0951], the IC50 in the data set with HCT116 was under 1 nM. The “Mean Score” value in the data set on HCT116 carcinoma (i.v. qd x 1 at MTD, 5 mice/group, Day 60, doses as in E3) was determined as 9.6 ± 0.2; in the data set with MX-1 carcinoma (i.v. qd x 1 at MTD, 6 mice/group, Day 60, doses as in E17) it was 9.5 ± 0.5. In addition, the “Stable Disease” value was 0 in the data set on HCT116 carcinoma (number of 5 mice, tumor did not reach 2.0 g by end of study, i.v. qd x 1 at MTD, Day 60, doses as in E3); 0 in the data set with MX-1 carcinoma (number of 6 mice, tumor did not reach 2.0 g by end of study, i.v. qd x 1 at MTD, Day 60, doses as in E17); “one” with A2780 ovarian carcinoma (setting [5]). Moreover, the “Complete Response” value in the data set on HCT116 carcinoma (number of 5 mice, tumor not palpable at end of study, i.v. qd x 1 at MTD, Day 60, doses as in E3) was 3; in the data set on MX-1 carcinoma (number of 6 mice, tumor not palpable at end of study, i.v. qd x 1 at MTD, Day 60, doses as in E17), 5. The “Partial Response” value in the data set on HCT116 carcinoma (number of 5 mice, tumor smaller than on Day 1, i.v. qd x 1 at MTD, Day 60, doses as in E3) is 2; in the data set on MX-1 carcinoma (number of 6 mice, tumor smaller than on Day 1, i.v. qd x 1 at MTD, Day 60, doses as in E17), 1. Also, the Survivors is listed as 5 with HCT116 carcinoma (setting [1]) and 6 in the data set on MX-1 carcinoma (setting [3]). Besides, the “Toxic Deaths” value in the data set on HCT116 carcinoma (setting [2]) and in the data set with MX-1 carcinoma (setting [4]) was 0 in each case. In the data set with MX-1 carcinoma (MX-1, single i.v. MTD), the “treated animals with durable complete responses and partial responses” value came to 100%. For the same compound, the “antitumor activity” value with A2780 ovarian carcinoma (A2780, i.v. qd x 1) is given as “no tumor shrinkage”. Further, in the data set on A2780 ovarian carcinoma (A2780, i.v. qd x 1), the “survival extension compared to Group 1 controls” value is on record as 269%. For the same compound, in the data set with A2780 ovarian carcinoma (A2780, i.v. qd x 1 (compounds estimated MTD; Taxol 24 mg/kg split; Taxotere 70 mg/kg), days until tumor 2.0 g, ended Day 60), the MDS is 43.2 days.
